Test results published in ChEMBL document CHEMBL1201862, “PubChem BioAssay data set” (2004).
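Compound exposure: 48 hours, 5 concentrations, 96-well plates. GI50: concentration for 50% inhibition of growth.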 Calls of active or inactive are those of the source. Cut-off read from the data, not from the text of the source: active = GI50 up to about 1.1 µM and inactive = higher.

Key:
Assay in all cases: DTP human tumour cell line panel, 48 h
NCI-H522 = system: NCI-H522
CCRF-CEM = system: CCRF-CEM
SN12C = system: SN12C
HT-29 = system: HT-29
OVCAR-5 = system: OVCAR-5
K562 = system: K562
DU-145 = system: DU-145
SW-620 = system: SW-620
LOX IMVI = system: LOX IMVI
RPMI-8226 = system: RPMI-8226
Hs-578T = system: Hs-578T
SF-295 = system: SF-295
CAKI-1 = system: CAKI-1
BT-549 = system: BT-549
SNB-19 = system: SNB-19
COLO 205 = system: COLO 205
PC-3 = system: PC-3
UACC-257 = system: UACC-257
OVCAR-4 = system: OVCAR-4
SR = system: SR

Measured: GI50

CC(NC1=CC(=O)c2ncccc2C1=O)C(O)c1ccccc1 (stereo not given)
inactive: NCI-H522 7.66 µM | CCRF-CEM 5.75 µM | SN12C 5.18 µM | HT-29 11.5 µM | OVCAR-5 15.5 µM | K562 2.04 µM | DU-145 6.22 µM | SW-620 4.9 µM | LOX IMVI 1.8 µM | RPMI-8226 13.4 µM | Hs-578T 4.2 µM | SF-295 3.32 µM | CAKI-1 6.78 µM | BT-549 1.85 µM | SNB-19 6.35 µM | COLO 205 16 µM | PC-3 12.1 µM | UACC-257 1.91 µM | OVCAR-4 6.78 µM | SR 8.36 µM

C=CC/C(C(=O)OC)=C(/C(=O)OC)N(CCC)CCC
inactive: NCI-H522 83.8 µM | CCRF-CEM 36.1 µM | SN12C > 100 µM | HT-29 > 100 µM | OVCAR-5 > 100 µM | K562 35.8 µM | DU-145 > 100 µM | SW-620 76.7 µM | LOX IMVI > 100 µM | RPMI-8226 41.9 µM | Hs-578T > 100 µM | SF-295 > 100 µM | CAKI-1 > 100 µM | BT-549 > 100 µM | SNB-19 > 100 µM | COLO 205 99.5 µM | PC-3 > 100 µM | UACC-257 > 100 µM | OVCAR-4 > 100 µM | SR 16.4 µM

Cc1ccc(S(=O)(=O)OC2C3OC(C)(C)OC3OC2C(c2cc(O)c3c(c2O)C(=O)c2ccccc2C3=O)c2cc(O)c3c(c2O)C(=O)c2ccccc2C3=O)cc1 (stereo not given)
inactive: NCI-H522 > 10 µM | CCRF-CEM > 10 µM | SN12C > 10 µM | HT-29 > 10 µM | OVCAR-5 > 10 µM | K562 > 10 µM | DU-145 > 10 µM | SW-620 > 10 µM | LOX IMVI > 10 µM | RPMI-8226 > 10 µM | Hs-578T > 10 µM | SF-295 > 10 µM | CAKI-1 > 10 µM | BT-549 > 10 µM | SNB-19 > 10 µM | COLO 205 > 10 µM | PC-3 > 10 µM | UACC-257 > 10 µM | OVCAR-4 > 10 µM | SR > 10 µM

Nc1nccc(Nc2ccc(S(N)(=O)=O)cc2)n1
inactive: NCI-H522 > 100 µM | CCRF-CEM > 100 µM | SN12C > 100 µM | HT-29 > 100 µM | OVCAR-5 > 100 µM | K562 > 100 µM | DU-145 > 100 µM | SW-620 > 100 µM | LOX IMVI > 100 µM | RPMI-8226 > 100 µM | Hs-578T > 100 µM | SF-295 > 100 µM | CAKI-1 > 100 µM | BT-549 > 100 µM | SNB-19 > 100 µM | COLO 205 > 100 µM | PC-3 > 100 µM | UACC-257 > 100 µM | OVCAR-4 > 100 µM | SR > 100 µM

CC(=O)c1c(C)cc2cccc(OC3OC(CO)C(O)C(O)C3O)c2c1O.CC1OC(O)C(O)C(O)C1O (stereo not given)
inactive: NCI-H522 > 100 µM | CCRF-CEM > 100 µM | SN12C > 100 µM | HT-29 > 100 µM | OVCAR-5 > 100 µM | K562 > 100 µM | DU-145 > 100 µM | SW-620 > 100 µM | LOX IMVI > 100 µM | RPMI-8226 > 100 µM | Hs-578T > 100 µM | SF-295 > 100 µM | CAKI-1 > 100 µM | BT-549 > 100 µM | SNB-19 > 100 µM | COLO 205 > 100 µM | PC-3 > 100 µM | UACC-257 > 100 µM | OVCAR-4 > 100 µM | SR > 100 µM

COc1ccc(/C=C/C(=O)/C=C/c2ccc(OC)cc2OC)c(OC)c1
inactive: NCI-H522 2.41 µM | CCRF-CEM 2.92 µM | SN12C 18.6 µM | HT-29 2.64 µM | OVCAR-5 4.01 µM | K562 2.79 µM | DU-145 12.4 µM | SW-620 5.32 µM | LOX IMVI 3.63 µM | RPMI-8226 3.71 µM | Hs-578T 26.3 µM | SF-295 24.7 µM | CAKI-1 5.35 µM | BT-549 4.34 µM | SNB-19 12.6 µM | COLO 205 5.61 µM | PC-3 12.2 µM | UACC-257 1.39 µM | OVCAR-4 12.3 µM | SR 3.64 µM
